Experimental data as given in patent US20050245399A1, “Pyrazole derivatives as herbicidal compositions containing them” (ISHIHARA SANGYO KAISHA, LTD., priority 2004, published 2005).

Tests used:
Assay type in all cases: in vivo
[1] = system: barnyardgrass (Echinochloa crus-galli L.): ECHCG; assay: Test Example 1 pre-emergence herbicidal activity, ECHCG; settings: visually observed 20th to 23rd day after application
Procedure, shortened: (§1)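 Seeds go into pots of upland field soil; one day on, the diluted formulation (500 L/ha water) is sprayed pre-emergence. Effects are scored visually 20 to 23 days post-application as 0–100% growth control.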

[2] = system: crabgrass (Digitaria sanguinalis L.): DIGSA; assay: Test Example 1 pre-emergence herbicidal activity, DIGSA; settings: visually observed 20th to 23rd day after application
Procedure, shortened: as §1

[3] = system: green foxtail (Setaria viridis L.): SETVI; assay: Test Example 1 pre-emergence herbicidal activity, SETVI; settings: visually observed 20th to 23rd day after application
Procedure, shortened: as §1

[4] = system: redroot pigweed (Amaranthus retroflexus L.): AMARE; assay: Test Example 1 pre-emergence herbicidal activity, AMARE; settings: visually observed 20th to 23rd day after application
Procedure, shortened: as §1

[5] = system: prickly sida (Sida spinosa L.): SEDSP; assay: Test Example 1 pre-emergence herbicidal activity, SIDSP; settings: visually observed 20th to 23rd day after application
Procedure, shortened: as §1

[6] = system: velvetleaf (Abutilon theophrasti): ABUTH; assay: Test Example 1 pre-emergence herbicidal activity, ABUTH; settings: visually observed 20th to 23rd day after application
Procedure, shortened: as §1

[7] = system: rice (Oryza sativa L.): ORYSA; assay: Test Example 1 pre-emergence herbicidal activity, ORYSA; settings: visually observed 20th to 23rd day after application
Procedure, shortened: as §1

[8] = system: wheat (Triticum aestivum L.): TRZAX; assay: Test Example 1 pre-emergence herbicidal activity, TRZAX; settings: visually observed 20th to 23rd day after application
Procedure, shortened: as §1

[9] = system: corn (Zea mays L.): ZEAMX; assay: Test Example 1 pre-emergence herbicidal activity, ZEAMX; settings: visually observed 20th to 23rd day after application
Procedure, shortened: as §1

[10] = system: soybean (Glycine max Merr.): GLXMA; assay: Test Example 1 pre-emergence herbicidal activity, GLXMA; settings: visually observed 20th to 23rd day after application
Procedure, shortened: as §1

[11] = system: barnyardgrass (Echinochloa crus-galli L.), ECHCG; assay: Test Example 2 post-emergence (foliage treatment) herbicidal activity, ECHCG; settings: 63 g a.i./ha
Procedure, shortened: (§2)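 Sow in upland soil; grow to leaf stage (barnyardgrass 1.1-2.1, crabgrass 1.0-2.0, pigweed 0.1-1.5, rice 1.0-2); spray foliage at a fixed active ingredient rate in 500 L/ha water with 0.1% (v/v) spreader; rate growth control visually at 20-23 days on a 0-100% scale.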

[12] = system: crabgrass (Digitaria sanguinalis L.), DIGSA; assay: Test Example 2 post-emergence (foliage treatment) herbicidal activity, DIGSA; settings: 63 g a.i./ha
Procedure, shortened: as §2

[13] = system: green foxtail (Setaria viridis L.), SETVI; assay: Test Example 2 post-emergence (foliage treatment) herbicidal activity, SETVI; settings: 63 g a.i./ha
Procedure, shortened: (§3)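 Foliar spray of formulated compound (500 L/ha dilution water, 0.1% v/v spreader) onto young potted plants at defined leaf stages. Scored 0-100% by visual inspection 20-23 d post-spray.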

[14] = system: redroot pigweed (Amaranthus retroflexus L.), AMARE; assay: Test Example 2 post-emergence (foliage treatment) herbicidal activity, AMARE; settings: 63 g a.i./ha
Procedure, shortened: as §2

[15] = system: prickly sida (Sida spinosa L.), SIDSP; assay: Test Example 2 post-emergence (foliage treatment) herbicidal activity, SIDSP; settings: 63 g a.i./ha
Procedure, shortened: as §3

[16] = system: velvetleaf (Abutilon theophrasti), ABUTH; assay: Test Example 2 post-emergence (foliage treatment) herbicidal activity, ABUTH; settings: 63 g a.i./ha
Procedure, shortened: as §3

[17] = system: rice (Oryza sativa L.), ORYSA; assay: Test Example 2 post-emergence (foliage treatment) herbicidal activity, ORYSA; settings: 63 g a.i./ha
Procedure, shortened: as §2

[18] = system: wheat (Triticum aestivum L.), TRZAX; assay: Test Example 2 post-emergence (foliage treatment) herbicidal activity, TRZAX; settings: 63 g a.i./ha
Procedure, shortened: as §3

[19] = system: corn (Zea mays L.), ZEAMX; assay: Test Example 2 post-emergence (foliage treatment) herbicidal activity, ZEAMX; settings: 63 g a.i./ha
Procedure, shortened: as §3

[20] = system: soybean (Glycine max Merr.), GLXMA; assay: Test Example 2 post-emergence (foliage treatment) herbicidal activity, GLXMA; settings: 63 g a.i./ha
Procedure, shortened: as §3

[21] = system: barnyardgrass (Echinochiloa oryzicola: ECHOR); assay: Test Example 3 water application herbicidal activity (paddy), ECHOR; settings: 63 g a.i./ha, water application under submerged condition at 0.5 leaf stage, visually observed 14th day after application; 0 = untreated control, 100 = complete kill
Procedure, shortened: (§4)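 Flooded paddy-soil pots in greenhouse; ECHOR and SCPJO sown, SAGPY tubers planted a day later, compound applied into 3–4 cm water at weeds' 0.5-leaf stage. Rice transplanted at 2-leaf stage, treated day 4 after transplanting. Visual growth control 0–100% at 14 days (weeds) and 21 days (rice) after application.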

[22] = system: japanese bulrush (Scirpus juncoides: SCPJO); assay: Test Example 3 water application herbicidal activity (paddy), SCPJO; settings: 63 g a.i./ha, water application under submerged condition at 0.5 leaf stage, visually observed 14th day after application; 0 = untreated control, 100 = complete kill
Procedure, shortened: as §4

[23] = system: japanese ribbon wapato (Sagittaria pygmaea: SA GPY); assay: Test Example 3 water application herbicidal activity (paddy), SAGPY; settings: 63 g a.i./ha, water application under submerged condition, tubers planted, visually observed 14th day after application; 0 = untreated control, 100 = complete kill
Procedure, shortened: as §4

[24] = system: rice (Oryza sativa L.: ORYSA); assay: Test Example 3 water application herbicidal activity (paddy), transplanted rice ORYSA; settings: 63 g a.i./ha, water application 4th day after transplantation of 2 leaf stage rice, visually observed 21st day after application; 0 = untreated control, 100 = complete kill
Procedure, shortened: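 Submerged application in flooded paddy soil (3–4 cm water); weeds treated at 0.5-leaf stage, transplanted rice 4 d after transplanting. Scored visually as % growth control: weeds at 14 d, rice at 21 d.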

| SMILES | growth controlling degree, ECHCO [11] [%] | growth controlling degree, DIGSP [12] [%] | growth controlling degree, SETVI [13] [%] | growth controlling degree, AMARE [14] [%] | growth controlling degree, SIDSP [15] [%] | growth controlling degree, ABUTH [16] [%] | growth controlling degree, ORYSA [17] [%] | growth controlling degree, TRZAX [18] [%] | growth controlling degree, ZEAMX [19] [%] | growth controlling degree, GLXMA [20] [%] | growth controlling degrees (%) ECHOR [21] [%] | growth controlling degrees (%) SCPJO [22] [%] | growth controlling degrees (%) SAGPY [23] [%] | growth controlling degrees (%) ORYSA [24] [%] | Pre-emergence Herbicidal Activity ECHCG (growth controlling degree) ([1]; Rate 63 g a.i./ha) [%] | Pre-emergence Herbicidal Activity DIGSP (growth controlling degree) ([2]; Rate 63 g a.i./ha) [%] | Pre-emergence Herbicidal Activity SETVI (growth controlling degree) ([3]; Rate 63 g a.i./ha) [%] | Pre-emergence Herbicidal Activity AMARE (growth controlling degree) ([4]; Rate 63 g a.i./ha) [%] | Pre-emergence Herbicidal Activity SIDSP (growth controlling degree) ([5]; Rate 63 g a.i./ha) [%] | Pre-emergence Herbicidal Activity ABUTH (growth controlling degree) ([6]; Rate 63 g a.i./ha) [%] | also measured |
| --- | --- | --- | --- | --- | --- | --- | --- | --- | --- | --- | --- | --- | --- | --- | --- | --- | --- | --- | --- | --- | --- |
| COc1ccc(OC(=O)N(C(=O)Oc2ccc(OC)cc2)c2c(OC)c(Cl)cc(F)c2-c2nn(C)c(OC(F)F)c2Cl)cc1 [Compound 1-65] | 0 | 0 | 0 | 10 | 0 | 0 | 0 | 0 | 0 | 10 | 50 | 0 | 0 | 20 | – | – | – | – | – | – | Pre-emergence Herbicidal Activity ECHCG (growth controlling degree) ([1]; Rate 125 g a.i./ha): 0%; Pre-emergence Herbicidal Activity DIGSP (growth controlling degree) ([2]; Rate 125 g a.i./ha): 0%; Pre-emergence Herbicidal Activity SETVI (growth controlling degree) ([3]; Rate 125 g a.i./ha): 10%; Pre-emergence Herbicidal Activity AMARE (growth controlling degree) ([4]; Rate 125 g a.i./ha): 20%; Pre-emergence Herbicidal Activity SIDSP (growth controlling degree) ([5]; Rate 125 g a.i./ha): 10%; Pre-emergence Herbicidal Activity ABUTH (growth controlling degree) ([6]; Rate 125 g a.i./ha): 10%; Pre-emergence Herbicidal Activity ORYSA (growth controlling degree) ([7]; Rate 125 g a.i./ha): 0%; Pre-emergence Herbicidal Activity TRZAX (growth controlling degree) ([8]; Rate 125 g a.i./ha): 0%; Pre-emergence Herbicidal Activity ZEAMX (growth controlling degree) ([9]; Rate 125 g a.i./ha): 0%; Pre-emergence Herbicidal Activity GLXMA (growth controlling degree) ([10]; Rate 125 g a.i./ha): 0% |
| COc1c(Cl)cc(F)c(-c2nn(C)c(OC(F)F)c2Cl)c1NC(=O)CCOc1ccccc1 [Compound 1-34] | 70 | 70 | 100 | 100 | 100 | 100 | 40 | 30 | 50 | 70 | 100 | 50 | 80 | 30 | 0 | 60 | 70 | 100 | 70 | 30 | Pre-emergence Herbicidal Activity ORYSA (growth controlling degree) ([7]; Rate 63 g a.i./ha): 0%; Pre-emergence Herbicidal Activity TRZAX (growth controlling degree) ([8]; Rate 63 g a.i./ha): 0%; Pre-emergence Herbicidal Activity ZEAMX (growth controlling degree) ([9]; Rate 63 g a.i./ha): 0%; Pre-emergence Herbicidal Activity GLXMA (growth controlling degree) ([10]; Rate 63 g a.i./ha): 0% |
| COc1c(Cl)cc(F)c(-c2nn(C)c(OC(F)F)c2Cl)c1N(C=O)C(C)C [Compound 1-8] | 70 | 60 | 100 | 100 | 100 | 100 | 60 | 50 | 40 | 70 | 80 | 60 | 20 | 30 | 70 | 60 | 100 | 100 | 100 | 100 | Pre-emergence Herbicidal Activity ORYSA (growth controlling degree) ([7]; Rate 63 g a.i./ha): 60%; Pre-emergence Herbicidal Activity TRZAX (growth controlling degree) ([8]; Rate 63 g a.i./ha): 50%; Pre-emergence Herbicidal Activity ZEAMX (growth controlling degree) ([9]; Rate 63 g a.i./ha): 40%; Pre-emergence Herbicidal Activity GLXMA (growth controlling degree) ([10]; Rate 63 g a.i./ha): 70% |
| COc1c(Cl)cc(F)c(-c2nn(C)c(OC(F)F)c2Cl)c1NC(=O)COc1ccc(C#N)cc1 [Compound 1-36] | 50 | 60 | 60 | 100 | 100 | 100 | 20 | 10 | 0 | 50 | 100 | 40 | 70 | 35 | 10 | 30 | 60 | 100 | 20 | 30 | Pre-emergence Herbicidal Activity ORYSA (growth controlling degree) ([7]; Rate 63 g a.i./ha): 10%; Pre-emergence Herbicidal Activity TRZAX (growth controlling degree) ([8]; Rate 63 g a.i./ha): 0%; Pre-emergence Herbicidal Activity ZEAMX (growth controlling degree) ([9]; Rate 63 g a.i./ha): 0%; Pre-emergence Herbicidal Activity GLXMA (growth controlling degree) ([10]; Rate 63 g a.i./ha): 0% |
| C#CCN(C=O)c1c(OC(F)F)c(Cl)cc(F)c1-c1nn(C)c(OC(F)F)c1Cl [Compound 1-85] | 80 | 80 | 100 | 100 | 95 | 100 | 60 | 40 | 40 | 60 | 100 | 60 | 70 | 70 | 60 | 100 | 70 | 100 | 70 | 30 | Pre-emergence Herbicidal Activity ORYSA (growth controlling degree) ([7]; Rate 63 g a.i./ha): 10%; Pre-emergence Herbicidal Activity TRZAX (growth controlling degree) ([8]; Rate 63 g a.i./ha): 0%; Pre-emergence Herbicidal Activity ZEAMX (growth controlling degree) ([9]; Rate 63 g a.i./ha): 10%; Pre-emergence Herbicidal Activity GLXMA (growth controlling degree) ([10]; Rate 63 g a.i./ha): 0% |
